Assay: molar heat capacity at constant pressure
Details: 101.33 kPa, Vacuum adiabatic calorimetry

CCCCn1cc[n+](C)c1.[I-] [1-butyl-3-methylimidazolium iodide]
Details | molar heat capacity at constant pressure [J/K/mol]
168.81 K, Crystal | 158.7
169.51 K, Crystal | 159.1
170 K, Crystal | 159.4
170 K, Glass | 172.3
170.6 K, Glass | 172.7
170.88 K, Crystal | 159.9
171.57 K, Crystal | 160.3
172.61 K, Glass | 174
172.94 K, Crystal | 161.1
173.64 K, Crystal | 161.5
174.62 K, Glass | 175.4
175.01 K, Crystal | 162.3
175.71 K, Crystal | 162.7
176.63 K, Glass | 176.8
177.07 K, Crystal | 163.5
177.77 K, Crystal | 163.9
178.63 K, Glass | 178.2
179.14 K, Crystal | 164.8
179.83 K, Crystal | 165.2
180 K, Crystal | 165.3
180 K, Glass | 179.1
180.64 K, Glass | 179.6
181.2 K, Crystal | 166.1
181.89 K, Crystal | 166.6
182.64 K, Glass | 181
183.26 K, Crystal | 167.6
183.95 K, Crystal | 168.1
184.64 K, Glass | 182.6
185.31 K, Crystal | 169.1
186 K, Crystal | 169.6
186.65 K, Glass | 184.1
187.36 K, Crystal | 170.6
188.05 K, Crystal | 171.1
188.65 K, Glass | 185.7
189.41 K, Crystal | 171.9
190 K, Crystal | 172.3
190 K, Glass | 186.7
190.1 K, Crystal | 172.4
190.65 K, Glass | 187.2
191.46 K, Crystal | 173.3
192.15 K, Crystal | 173.7
192.65 K, Glass | 188.9
193.51 K, Crystal | 174.5
194.2 K, Crystal | 174.9
194.65 K, Glass | 191
195.56 K, Crystal | 175.7
196.24 K, Crystal | 176.1
196.66 K, Glass | 193
197.6 K, Crystal | 176.9
198.29 K, Crystal | 177.3
198.66 K, Glass | 195.4
199.65 K, Crystal | 178.1
200 K, Crystal | 178.3
200 K, Glass | 197.5
200.33 K, Crystal | 178.5
200.66 K, Glass | 198.5
201.69 K, Crystal | 179.3
202.37 K, Crystal | 179.8
202.93 K, Glass | 204.1
203.73 K, Crystal | 180.5
204.41 K, Crystal | 180.9
205.45 K, Glass | 214.4
205.77 K, Crystal | 181.8
206.45 K, Crystal | 182.2
207.77 K, Liquid | 247.8
207.8 K, Crystal | 183
208.48 K, Crystal | 183.4
209.84 K, Crystal | 184.3
209.86 K, Liquid | 287.7
210 K, Crystal | 184.3
210 K, Liquid | 287.6
210.52 K, Crystal | 184.6
211.87 K, Crystal | 185.5
212.03 K, Liquid | 285.8
212.55 K, Crystal | 185.9
213.91 K, Crystal | 186.8
214.19 K, Liquid | 286.4
214.58 K, Crystal | 187.2
215.94 K, Crystal | 188.1
216.37 K, Liquid | 286.6
216.61 K, Crystal | 188.6
217.97 K, Crystal | 189.5
218.54 K, Liquid | 287.1
218.63 K, Crystal | 190.1
219.99 K, Crystal | 191
220 K, Crystal | 191
220 K, Liquid | 287.3
220.66 K, Crystal | 191.6
220.72 K, Liquid | 287.4
222.01 K, Crystal | 192.5
222.11 K, Liquid | 287.7
222.67 K, Crystal | 193
222.9 K, Liquid | 287.9
224.03 K, Crystal | 194
224.39 K, Liquid | 288.2
224.69 K, Crystal | 194.5
225.09 K, Liquid | 288.5
226.04 K, Crystal | 195.5
226.56 K, Liquid | 288.5
226.7 K, Crystal | 196
226.71 K, Liquid | 288.5
227.28 K, Liquid | 288.7
227.61 K, Crystal | 196.7
228.05 K, Crystal | 197.1
228.71 K, Crystal | 197.5
228.74 K, Liquid | 289
228.79 K, Liquid | 289
229.47 K, Liquid | 289.3
229.61 K, Crystal | 198.3
230 K, Crystal | 198.5
230 K, Liquid | 289.4
230.06 K, Crystal | 198.5
230.71 K, Crystal | 198.9
230.77 K, Liquid | 289.5
230.93 K, Liquid | 289.5
231.61 K, Crystal | 199.7
231.66 K, Liquid | 289.8
232.06 K, Crystal | 200
232.71 K, Crystal | 200.6
232.76 K, Liquid | 289.8
233.11 K, Liquid | 290.1
233.61 K, Crystal | 201.3
233.72 K, Liquid | 290.1
233.86 K, Liquid | 290.3
234.06 K, Crystal | 201.7
234.71 K, Crystal | 202
234.74 K, Liquid | 290.3
235.3 K, Liquid | 290.6
235.61 K, Crystal | 202.8
235.72 K, Liquid | 290.6
236.05 K, Crystal | 203.2
236.05 K, Liquid | 290.9
236.7 K, Crystal | 203.6
236.72 K, Liquid | 290.9
237.48 K, Liquid | 291.1
237.6 K, Crystal | 204.3
237.71 K, Liquid | 291.1
238.04 K, Crystal | 204.8
238.25 K, Liquid | 291.4
238.69 K, Crystal | 205.3
238.71 K, Liquid | 291.4
239.6 K, Crystal | 205.9
239.67 K, Liquid | 291.7
239.7 K, Liquid | 291.7
240 K, Crystal | 206.3
240 K, Liquid | 291.7
240.03 K, Crystal | 206.3
240.46 K, Liquid | 291.9
240.67 K, Crystal | 206.7
240.69 K, Liquid | 291.9
241.59 K, Crystal | 207.5
241.7 K, Liquid | 292.2
241.85 K, Liquid | 292.2
242.01 K, Crystal | 208
242.65 K, Crystal | 208.4
242.68 K, Liquid | 292.5
243.58 K, Crystal | 209.1
243.69 K, Liquid | 292.7
243.99 K, Crystal | 209.6
244.04 K, Liquid | 292.7
244.63 K, Crystal | 210
244.67 K, Liquid | 293
245.57 K, Crystal | 210.8
245.96 K, Crystal | 211.2
246.6 K, Crystal | 211.6
247.55 K, Crystal | 212.5
247.93 K, Crystal | 212.9
248.56 K, Crystal | 213.4
249.54 K, Crystal | 214.3
249.7 K, Liquid | 294.3
250 K, Crystal | 214.6
250 K, Liquid | 294.4
250.52 K, Crystal | 215.1
251.69 K, Liquid | 294.9
252.54 K, Crystal | 217.2
253.58 K, Liquid | 295.4
254.59 K, Crystal | 219.4
255.48 K, Liquid | 295.9
256.64 K, Crystal | 221.7
257.37 K, Liquid | 296.5
258.69 K, Crystal | 224.2
259.26 K, Liquid | 297.3
260 K, Crystal | 223.4
260 K, Liquid | 297.4
260.73 K, Crystal | 227
261.15 K, Liquid | 297.8
262.75 K, Crystal | 230.3
263.05 K, Liquid | 298.3
264.77 K, Crystal | 234
264.94 K, Liquid | 298.9
266.78 K, Crystal | 238.1
266.84 K, Liquid | 299.7
267.43 K, Liquid | 299.7
268.74 K, Liquid | 300.2
268.77 K, Crystal | 243.1
269.42 K, Liquid | 300.5
270 K, Crystal | 232.6
270 K, Liquid | 300.6
270.64 K, Liquid | 300.7
270.74 K, Crystal | 249
271.32 K, Liquid | 301
272.7 K, Crystal | 256.2
273.22 K, Liquid | 301.5
274.63 K, Crystal | 266.1
275.12 K, Liquid | 302.3
276.52 K, Crystal | 280.2
277.02 K, Liquid | 302.9
278.36 K, Crystal | 295.7
278.92 K, Liquid | 303.4
280 K, Crystal | 242.3
280 K, Liquid | 303.8
280.15 K, Crystal | 317.2
280.82 K, Liquid | 303.9
281.86 K, Crystal | 349.7
282.72 K, Liquid | 304.7
283.46 K, Crystal | 398.1
284.62 K, Liquid | 305.2
284.92 K, Crystal | 473.4
286.2 K, Crystal | 587.3
286.52 K, Liquid | 306
287.29 K, Crystal | 773.4
288.17 K, Crystal | 1041
288.42 K, Liquid | 306.6
288.86 K, Crystal | 1421
289.4 K, Crystal | 1917
290 K, Crystal | 252.5
290 K, Liquid | 307.1
290.32 K, Liquid | 307.1
291.92 K, Crystal | 254.5
291.92 K, Liquid | 307.8
292.23 K, Liquid | 307.9
293.86 K, Liquid | 308.4
294.13 K, Liquid | 308.4
294.32 K, Liquid | 308.7
295.68 K, Liquid | 309
296.03 K, Liquid | 309.2
296.1 K, Liquid | 309.2
297.5 K, Liquid | 309.8
297.89 K, Liquid | 309.8
297.93 K, Liquid | 309.8
298.15 K, Liquid | 309.9
299.84 K, Liquid | 310.6
300 K, Liquid | 310.5
301.74 K, Liquid | 311.1
303.65 K, Liquid | 311.9
305.55 K, Liquid | 312.4
307.45 K, Liquid | 313.2
309.36 K, Liquid | 313.8
310 K, Liquid | 314.1
311.26 K, Liquid | 314.6
313.17 K, Liquid | 315.1
315.07 K, Liquid | 315.9
316.98 K, Liquid | 316.7
318.89 K, Liquid | 317.2
320 K, Liquid | 317.6
320.79 K, Liquid | 318
322.7 K, Liquid | 318.6
324.6 K, Liquid | 319.4
326.51 K, Liquid | 320.1
328.41 K, Liquid | 320.7
330 K, Liquid | 321.3
330.32 K, Liquid | 321.5
332.22 K, Liquid | 322
334.13 K, Liquid | 322.8
336.03 K, Liquid | 323.6
337.93 K, Liquid | 324.4
339.84 K, Liquid | 324.9
340 K, Liquid | 325.1
341.74 K, Liquid | 325.7
343.65 K, Liquid | 326.5
345.55 K, Liquid | 327.3
347.47 K, Liquid | 327.9
349.37 K, Liquid | 328.7
350 K, Liquid | 328.9
351.28 K, Liquid | 329.5
353.19 K, Liquid | 330.3
355.09 K, Liquid | 330.8
357 K, Liquid | 331.6
358.91 K, Liquid | 332.4
360 K, Liquid | 332.9
360.81 K, Liquid | 333.2
362.72 K, Liquid | 334
364.62 K, Liquid | 334.8
366.52 K, Liquid | 335.3
368.43 K, Liquid | 336.4
370 K, Liquid | 336.9
